Test results taken from patent US11512085B2, “Heteroaryl compound having drug activity” (SHANGHAI DUDE MEDICAL TECHNOLOGY CO., LTD, priority 2017, dated 2022).
Each block holds one compound with its values, some of them ahead of it.

Tests used:
Btk = Btk (Homo sapiens, UniProt Q06187); assay: Determination of Btk enzyme inhibitory activity; format: biochemical; details: 2 nM BTK
Method: Determination of Btk Enzyme Inhibitory Activity
Buffer solution: 50 mM Hepes pH 7.0, 0.1 mM Orthovanadate, 5 mM MgCl2, 0.01% of BSA;
1 mM TK-peptide, […], 50 nM SEB;
Pre-incubation for 15 minutes;
Reaction at 23° C. for 90 minutes;
Color Development Reaction:
Developing buffer solution: 50 mM Hepes pH8.0, 0.8 M KF, 20 mM EDTA, 0.01% BSA;
Reaction at 23° C. for 60 minutes;

[1] = Rat liver microsome stability test; format: in vitro ADME; details: for Remaining (*NCF = 60 min): RLM 0.5, 60 min, no co-factor; for Remaining (T = 60 min): RLM 0.5, 60 min with NADPH regenerating system; for half-life at 1 µM / microsomal CLint at 1 µM / CLint scaled at 1 µM: rat, liver microsomes, pH 7.4; for half-life at 1 µM: RLM 0.5 (0.5 mg protein/mL); for microsomal CLint at 1 µM / CLint scaled at 1 µM: RLM 0.5; for microsomal CLint at 1 µM: read-out: CLint(mic); for CLint scaled at 1 µM: scaled from CLint(mic)
Method: (§1) Preparation of Buffer Solution:
(§2) 1. 100 mM potassium phosphate buffer solution, pH of 7.4
(§3) Preparation of Test Compound Solution:
(§4) 1. A test compound solution (10 mM, 5 μL) was diluted with a methanol solution (495 μL), and a 100 μM solution was prepared;
(§5) 2. Preparation of a working solution: the above solution (50 μL) was diluted with the potassium phosphate buffer solution (450 μL, 100 mM) so as to obtain diluents (10 μM).
(§6) NADPH Regeneration System (Final Concentration 1 Unit/mL of Isocitrate Dehydrogenase):
(§7) 1. beta-NADP, supplier: sigma Cat. No. N0505
(§8) 3. isocitrate dehydrogenase, supplier: sigma Cat. No. 12002
(§9) Cold acetonitrile containing 100 ng/mL of tolbutamide and 100 ng/mL of labetalol serves as an internal standard
(§10) 1. a 10 μL/well of working solution was added into plates (T0, T5, T10, T20, T30, T60, NCF60) beyond the blank;
(§11) 2. a 80 μL/well of microsome solution was added, and incubation was performed at 37° C. for 10 min;
(§12) 3. a 10 μL of 100 mM phosphate buffer solution was added into each well of an NCF60 plate, the plate was placed in a warm bath at 37° C., and timing started;
(§13) 4. a 10 μL/well of NADPH regeneration system was added after preheating, and a reaction started;
(§14) 5. incubation was performed at 37° C., and timing started
(§15) 6. a 300 μL/well of stop solution was added (4° C., containing 100 ng/mL of tolbutamide and 100 ng/mL of labetalol) to end the reaction;
(§16) 7. the plate was shaken for 10 min;
(§17) 8. centrifugation was performed at 4° C. at a rotation speed of 4000 rpm; and
(§18) 9. sample LC/MS/MS detection was performed.
(§19) Data Analysis Use Equation of First Order Kinetics to Calculate t½ and Clint(Mic): […]
(§20) equation of first order kinetics: […]

LynA = LynA (Homo sapiens, UniProt P07948); assay: Btk selectivity over LynA (same kinase method, Btk replaced); format: biochemical; details: ratio of IC50 values
Method: (§21) Other kinases (e.g., inhibitory activity of Lck and LynA is determined by replacing the Btk with various kinases and performing operations the same as that in the above method).

[2] = Human liver microsome stability test; format: in vitro ADME; details: for Remaining (*NCF = 60 min): HLM 0.5, 60 min, no co-factor; for Remaining (T = 60 min): HLM 0.5, 60 min with NADPH regenerating system; for half-life at 1 µM / microsomal CLint at 1 µM / CLint scaled at 1 µM: human, liver microsomes, pH 7.4; for half-life at 1 µM: HLM 0.5 (0.5 mg protein/mL); for microsomal CLint at 1 µM / CLint scaled at 1 µM: HLM 0.5; for microsomal CLint at 1 µM: read-out: CLint(mic); for CLint scaled at 1 µM: scaled from CLint(mic)
Method: as §1, §2, §3, §4, §5, §6, §7, §8, §9, §10, §11, §12, §13, §14, §15, §16, §17, §18, §19, §20

Lck = Lck (Homo sapiens, UniProt P06239); assay: Btk selectivity over Lck (same kinase method, Btk replaced); format: biochemical; details: ratio of IC50 values
Method: as §21

[3] = People; FDA data; cited from earlier work

Btk, sequence (Q06187 whole entry): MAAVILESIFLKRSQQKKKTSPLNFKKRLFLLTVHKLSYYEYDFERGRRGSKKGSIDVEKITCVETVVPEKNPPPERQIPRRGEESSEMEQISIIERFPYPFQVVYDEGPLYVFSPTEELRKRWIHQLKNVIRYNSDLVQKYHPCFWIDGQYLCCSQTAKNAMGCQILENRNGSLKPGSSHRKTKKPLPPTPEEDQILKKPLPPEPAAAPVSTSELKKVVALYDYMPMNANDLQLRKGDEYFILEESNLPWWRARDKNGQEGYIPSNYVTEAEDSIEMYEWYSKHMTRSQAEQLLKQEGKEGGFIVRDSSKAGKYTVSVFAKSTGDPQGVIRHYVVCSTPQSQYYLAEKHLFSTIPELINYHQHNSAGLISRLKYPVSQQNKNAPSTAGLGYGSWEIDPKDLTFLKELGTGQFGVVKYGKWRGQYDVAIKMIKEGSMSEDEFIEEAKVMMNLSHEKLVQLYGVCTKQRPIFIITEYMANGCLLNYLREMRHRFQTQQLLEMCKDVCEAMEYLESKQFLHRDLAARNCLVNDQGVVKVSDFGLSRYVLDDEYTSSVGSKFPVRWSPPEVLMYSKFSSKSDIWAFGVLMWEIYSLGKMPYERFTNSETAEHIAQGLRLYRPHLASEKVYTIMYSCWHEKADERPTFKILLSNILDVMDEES
LynA, sequence (P07948 whole entry): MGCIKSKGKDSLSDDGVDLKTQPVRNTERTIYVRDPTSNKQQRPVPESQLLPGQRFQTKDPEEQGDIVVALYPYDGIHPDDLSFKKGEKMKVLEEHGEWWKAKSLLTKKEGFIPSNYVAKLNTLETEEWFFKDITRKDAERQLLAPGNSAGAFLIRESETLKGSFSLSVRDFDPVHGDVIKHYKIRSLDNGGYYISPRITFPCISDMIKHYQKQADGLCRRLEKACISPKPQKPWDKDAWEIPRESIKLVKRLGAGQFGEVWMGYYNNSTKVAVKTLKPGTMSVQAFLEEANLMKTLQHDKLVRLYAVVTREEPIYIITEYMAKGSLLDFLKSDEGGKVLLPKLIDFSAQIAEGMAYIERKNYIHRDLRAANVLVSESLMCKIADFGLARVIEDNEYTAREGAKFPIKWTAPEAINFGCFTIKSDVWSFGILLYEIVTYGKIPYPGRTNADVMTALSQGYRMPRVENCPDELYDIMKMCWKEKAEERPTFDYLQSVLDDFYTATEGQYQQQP
Lck, sequence (P06239 whole entry): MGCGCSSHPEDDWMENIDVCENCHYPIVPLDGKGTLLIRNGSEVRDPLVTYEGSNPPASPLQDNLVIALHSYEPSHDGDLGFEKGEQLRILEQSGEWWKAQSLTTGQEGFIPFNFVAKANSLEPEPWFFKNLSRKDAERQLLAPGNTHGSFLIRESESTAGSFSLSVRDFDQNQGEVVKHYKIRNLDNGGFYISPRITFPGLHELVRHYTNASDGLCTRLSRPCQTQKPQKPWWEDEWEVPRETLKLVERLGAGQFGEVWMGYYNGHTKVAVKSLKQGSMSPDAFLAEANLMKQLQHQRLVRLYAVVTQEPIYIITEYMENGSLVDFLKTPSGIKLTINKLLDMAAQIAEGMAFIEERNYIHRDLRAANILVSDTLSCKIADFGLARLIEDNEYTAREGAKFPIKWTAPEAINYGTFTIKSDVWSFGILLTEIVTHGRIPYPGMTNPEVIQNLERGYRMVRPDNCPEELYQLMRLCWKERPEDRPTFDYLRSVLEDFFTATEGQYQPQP

SMILES: C=CC(=O)N1CCCC(n2c(=O)n(-c3ccc(-c4noc(C=C)n4)cc3)c3c(N)ncnc32)C1 (stereo not shown) [Embodiment 35, 9-(1-allylpropionylpiperidine-3-yl)-6-amino-7-(4-(5-vinyl-1,2,4-oxadiazole-3-yl)phenyl)-7,9-dihydro-8H-purine-8-one]
IC50 (Btk): 176 nM

SMILES: C=CC(=O)N(C)N1CCCC(n2nc(-c3ccc(Oc4ccccc4)cc3)c3c(N)ncnc32)C1 (stereo not shown) [Embodiment 8]
Remaining (*NCF = 60 min) [1]: 111.2% | Remaining (T = 60 min) [1]: 0.2% | half-life at 1 µM [1]: 3.8 min | microsomal CLint at 1 µM [1]: 366 µL/min/mg | CLint scaled at 1 µM [1]: 658 mL/min/kg | LynA[IC50]/Btk[IC50] (LynA): 62.5 | Remaining (*NCF = 60 min) [2]: 105.8% | Remaining (T = 60 min) [2]: 0.0% | half-life at 1 µM [2]: 3.7 min | microsomal CLint at 1 µM [2]: 374 µL/min/mg | CLint scaled at 1 µM [2]: 336 mL/min/kg | Lck[IC50]/Btk[IC50] (Lck): 139

SMILES: C=CC(=O)N(C)N1CCC[C@@H](n2c(=O)n(-c3ccc(Oc4ccccc4)cc3)c3c(N)ncnc32)C1 [Embodiment 30]
IC50 (Btk): 76.8 nM

SMILES: C=CC(=O)NN1CCC[C@@H](n2c(=O)n(-c3ccc(C(=O)Nc4ccccn4)cc3)c3c(N)ncnc32)C1 [Embodiment 40, 4-(9-(1-acrylamidepiperidine-3-yl)-6-amino-8-oxo-8,9-dihydro-7H-purine-7-yl)-N-(pyridin-2-yl)benzamide]
IC50 (Btk): 23 nM

SMILES: C=CC(=O)N1CCC[C@@H](n2nc(-c3ccc(-c4noc(C)n4)cc3)c3c(N)ncnc32)C1 [Embodiment 22, 1-(3-(4-amino-3-(4-(5-methyl-1,2,4-oxadiazole-3-yl)phenyl)-1H-pyrazolo[3,4-D]pyrimidine-1-yl)-1-piperidyl)-2-propylene-1-one]
IC50 (Btk): 145 nM

SMILES: C=CC(=O)N1CCC[C@@H](n2nc(-c3ccc(Oc4ccccc4)cc3)c3c(N)ncnc32)C1 [Ibrutinib]
bioavailability [3]: 2.9%

SMILES: C=CC(=O)N1CCCC(n2c(=O)n(-c3ccc(-c4noc(C)n4)cc3)c3c(N)ncnc32)C1 (stereo not shown) [Embodiment 34, 9-(1-allylpropionylpiperidine-3-yl)-6-amino-7-(4-(5-methyl-1,2,4-oxadiazole-3-yl)phenyl)-7,9-dihydro-8H-purine-8-one]
IC50 (Btk): 209 nM

SMILES: C=CC(=O)N1CCC[C@@H](n2c(=O)n(-c3ccc(-c4noc(CCCCl)n4)cc3)c3c(N)ncnc32)C1 [Embodiment 36, 9-(1-allylpropionylpiperidine-3-yl)-6-amino-7-(4-(5-(3-chloropropyl)-1,2,4-oxadiazole-3-yl)phenyl)-7,9-dihydro-8H-purine-8-one]
IC50 (Btk): > 1000 nM

SMILES: C=CC(=O)N1CCC[C@@H](n2nc(-c3ccc(-c4noc(CCCCl)n4)cc3)c3c(N)ncnc32)C1 [Embodiment 24, 1-(3-(4-amino-3-(4-(5-(3-chloropropyl)-1,2,4-oxadiazole-3-yl)phenyl)-1H-pyrazolo[3,4-D]pyrimidine-1-yl)-1-piperidyl)-2-propylene-1-one]
IC50 (Btk): 78 nM

SMILES: C=CC(=O)NN1CCCC(n2c(=O)n(-c3ccc(Oc4ccccc4)cc3)c3c(N)ncnc32)C1 (stereo not shown) [Embodiment 29]
IC50 (Btk): > 1000 nM

More lines, now with the values ahead:

IC50 (Btk): 5.82 nM
SMILES: C=CC(=O)N1CCC[C@@H](n2nc(/C=C/c3ccc(Cl)cc3)c3c(N)ncnc32)C1 [Embodiment 14, 1-(3-(4-amino-3-(4-chlorophenylvinyl)-1H-pyrazolo[3,4-D]pyrimidine-1-yl)-piperidyl)-2-propylene-1-one]

IC50 (Btk): 16.7 nM
SMILES: C=CC(=O)N1CCCC(n2nc(/C=C/c3ccccc3Cl)c3c(N)ncnc32)C1 (stereo not shown) [Embodiment 16, 1-(3-(4-amino-3-(2-chlorophenylvinyl)-1H-pyrazolo[3,4-D]pyrimidine-1-yl)-piperidyl)-2-propylene-1-one]

IC50 (Btk): 0.9 nM
SMILES: C=CC(=O)NN1CCC[C@@H](n2nc(-c3ccc(Oc4ccccc4F)cc3)c3c(N)ncnc32)C1 [Embodiment 42]

IC50 (Btk): 5.1 nM
SMILES: C=CC(=O)NN1CCCC(c2nc(-c3ccc(Oc4ccccc4)cc3)c3c(N)nccn23)C1 (stereo not shown) [Embodiment 51, N-(3-(8-amino-1-(4-phenoxyphenyl)imidazo[1,5-a]pyrazine-3-yl)-1-piperidyl) acrylamide]

IC50 (Btk): 6.9 nM
SMILES: C=CC(=O)N1CCC[C@@H](n2nc(/C=C/c3cccc(Cl)c3)c3c(N)ncnc32)C1 [Embodiment 15, 1-(3-(4-amino-3-(3-chlorophenylvinyl)-1H-pyrazolo[3,4-D]pyrimidine-1-yl)-piperidyl)-2-propylene-1-one]

IC50 (Btk): 0.64 nM
SMILES: C=CC(=O)N(C)N1CCC[C@@H](n2nc(-c3ccc(Oc4ccccc4)cc3)c3c(N)ncnc32)C1 [Embodiment 8]

IC50 (Btk): 0.46 nM | Remaining (*NCF = 60 min) [1]: 94.7% | Remaining (T = 60 min) [1]: 5.0% | half-life at 1 µM [1]: 13.7 min | microsomal CLint at 1 µM [1]: 101 µL/min/mg | CLint scaled at 1 µM [1]: 182 mL/min/kg | LynA[IC50]/Btk[IC50] (LynA): 507 | Remaining (*NCF = 60 min) [2]: 93.1% | Remaining (T = 60 min) [2]: 14.0% | half-life at 1 µM [2]: 20.5 min | microsomal CLint at 1 µM [2]: 67.6 µL/min/mg | CLint scaled at 1 µM [2]: 60.8 mL/min/kg | Lck[IC50]/Btk[IC50] (Lck): 420
SMILES: C=CC(=O)N1CCCC(n2nc(/C=C/c3ccccn3)c3c(N)ncnc32)C1 (stereo not shown) [Embodiment 13, 1-(3-(4-amino-3-(2-2-pyridyl)vinyl-1H-pyrazolo[3,4-D]pyrimidine-1-yl)-piperidyl)-2-propylene-1-one]
